The target in this assay is T1, mouse NPY5-receptor (mNPY5) (Mus musculus, UniProt O70342).
T1 construct: The full-length cDNA encoding the mouse NPY5 (mNPY5) receptor was amplified from mouse brain cDNA; expressed in transfected cells; membranes used
T1 sequence (O70342 1-466): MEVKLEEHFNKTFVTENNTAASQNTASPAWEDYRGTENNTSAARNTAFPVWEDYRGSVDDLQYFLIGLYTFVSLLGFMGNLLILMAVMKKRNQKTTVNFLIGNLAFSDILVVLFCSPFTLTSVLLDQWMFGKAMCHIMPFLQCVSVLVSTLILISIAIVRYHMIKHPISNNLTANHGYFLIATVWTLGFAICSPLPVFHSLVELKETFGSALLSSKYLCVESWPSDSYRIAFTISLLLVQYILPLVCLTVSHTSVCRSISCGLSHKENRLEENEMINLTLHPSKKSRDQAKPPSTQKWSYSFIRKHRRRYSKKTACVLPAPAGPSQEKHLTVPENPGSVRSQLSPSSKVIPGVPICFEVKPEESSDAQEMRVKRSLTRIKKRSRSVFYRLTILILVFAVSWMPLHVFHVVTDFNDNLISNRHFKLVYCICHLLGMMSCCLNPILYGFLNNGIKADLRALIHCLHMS
Description: Radioligand competition binding. Conditions: membranes of HEK293 cells expressing recombinant mNPY5; 100 pM [125I]labelled peptide YY; 1 h at 22° C. The text has this: Cloning of Mouse NPY5 Receptor cDNAs:
The full-length cDNA encoding the mouse NPY5 (mNPY5) receptor was amplified from mouse brain cDNA using specific primers, designed based on the published sequence, and Pfu DNA-Polymerase. The amplification product was subcloned into the mammalian expression vector pcDNA3 using EcoRI and XhoI restriction sites. Positive clones were sequenced and one clone, encoding the published sequence (see Borowsky, B., et al., Molecular biology and pharmacology of multiple NPY Y5 receptor species homologs, Regul. Pept. (1998) 75-76:45-53) was selected for generation of stable cell clones.
Human embryonic kidney 293 (HEK293) cells were transfected with 10 μg mNPY5 DNA using the lipofectamine reagent (Gibco BRL) according to the manufacturer's instruction. Two days after transfection, geneticin selection (1 mg/ml) was initiated and several stable clones were isolated. One clone was further used for pharmacological characterization.
Radioligand Competition Binding:
Human embryonic kidney 293 cells (HEK293), expressing recombinant mouse NPY5-receptor (mNPY5) were broken by three freeze/thawing cycles in hypotonic Tris buffer (5 mM, pH 7.4, 1 mM MgCl2), homogenized and centrifuged at 72,000×g for 15 min. […] Protein was determined according to the method of Lowry using bovine serum albumine (BSA) as a standard. […]

The term IC50 denotes the concentration that gives 50% inhibition. Take `O=C(c1ccccn1)c1cnc(NCCCNS(=O)(=O)c2ccccc2F)s1` [Example 1, 2-Fluoro-N-{3-[5-(pyridine-2-carbonyl)-thiazol-2-ylamino]-propyl}-benzenesulfonamide]: the half-inhibitory concentration (IC50) was 5.4 nM.
Under `COc1ccc(C)cc1S(=O)(=O)NCCCNc1nc(C(=O)c2ccccc2C)cs1` [Example 140, 2-Methoxy-5-methyl-N-{3-[4-(2-methyl-benzoyl)-thiazol-2-ylamino]-propyl}-benzenesulfonamide] stands 6 nM.

These data come from patent US6686381B2, “Thiazole derivatives” (Hoffmann-La Roche Inc., priority 2002, dated 2004).
